Data on three molecules can be found in ChEMBL document CHEMBL3046846, “Synthesis of N-Alkyl-2, 3-dimethyl-5-[N-(5-halo-2-methylphenyl)carbamoyl]-6-pyrazinecarboxamides and Their Herbicidal Activity” (J Pestic Sci, 1997).

Data set [1] deals with Echinochloa crus-galli. The data set can be described thus: Herbicidal activity against Echinochloa crus-galli (barnyard grass) at 250 g/ha after 2 weeks. The data set is classed as functional.
The test system of data set [2] is Xanthium strumarium. The data set can be described thus: Herbicidal activity against Xanthium strumarium (cocklebur) 500 g/ha after 2 weeks. The data set is classed as functional.
The subject of data set [3] is Veronica persica. The data set can be described thus: Herbicidal activity against Veronica persica at 250 g/ha after 2 weeks. It counts as functional.
In data set [4] the test system is Glycine max. The data set can be described thus: Herbicidal activity against Glycine max (soybean) at 500 g/ha after 2 weeks. The data set is classed as organism-based. Particulars: in vivo, 336 h.
Data set [5] concerns Glycine max. The data set can be described thus: Herbicidal activity against Glycine max (soybean) at 250 g/ha after 2 weeks. It counts as organism-based. To be noted: in vivo, 336 h.
For data set [6], the system named is Xanthium strumarium. In words: Herbicidal activity against Xanthium strumarium (cocklebur) 250 g/ha after 2 weeks. It counts as functional.
Data set [7] has as its system Abutilon theophrasti. The data set can be described thus: Herbicidal activity against Abutilon theophrasti (velvetleaf) at 250 g/ha after 2 weeks. The data set is classed as functional.
In data set [8] the test system is Veronica persica. In words: Herbicidal activity against Veronica persica at 500 g/ha after 2 weeks. It counts as functional.
Data set [9] has as its system Avena fatua. The data set can be described thus: Herbicidal activity against Avena fatua at 500 g/ha after 2 weeks. The data set is classed as functional.
Data set [10] deals with Xanthium strumarium. In words: Herbicidal activity against Xanthium strumarium (cocklebur) 5000 g/ha after 2 weeks. The data set is classed as functional.
Data set [11] concerns Triticum aestivum. The data set can be described thus: Herbicidal activity against Triticum aestivum (wheat) at 250 g/ha after 2 weeks. The data set is classed as organism-based. Particulars: in vivo, 336 h.
In data set [12] the test system is Echinochloa crus-galli. The data set can be described thus: Herbicidal activity against Echinochloa crus-galli (barnyard grass) at 500 g/ha after 2 weeks. It counts as functional.
Data set [13] deals with Abutilon theophrasti. The data set can be described thus: Herbicidal activity against Abutilon theophrasti (velvetleaf) at 5000 g/ha after 2 weeks. The data set is classed as functional.
In data set [14] the test system is Veronica persica. In words: Herbicidal activity against Veronica persica at 5000 g/ha after 2 weeks. The data set is classed as functional.
Data set [15] relates to Galium spurium. In words: Herbicidal activity against Galium spurium var. echinospermon (Wally.) Hayek at 500 g/ha after 2 weeks. The data set is classed as functional.
Data set [16] relates to Galium spurium. The data set can be described thus: Herbicidal activity against Galium spurium var. echinospermon (Wally.) Hayek at 250 g/ha after 2 weeks. It counts as functional.
Data set [17] deals with Glycine max. The data set can be described thus: Herbicidal activity against Glycine max (soybean) at 5000 g/ha after 2 weeks. Particulars: in vivo, 336 h. The data set is classed as organism-based.
The subject of data set [18] is Avena fatua. In words: Herbicidal activity against Avena fatua at 250 g/ha after 2 weeks. It counts as functional.
The subject of data set [19] is Avena fatua. In words: Herbicidal activity against Avena fatua at 5000 g/ha after 2 weeks. The data set is classed as functional.
Data set [20] concerns Abutilon theophrasti. In words: Herbicidal activity against Abutilon theophrasti (velvetleaf) at 500 g/ha after 2 weeks. It counts as functional.
For data set [21], the system named is Triticum aestivum. In words: Herbicidal activity against Triticum aestivum (wheat) at 500 g/ha after 2 weeks. Particulars: in vivo, 336 h. The data set is classed as ADME, organism-based.
The subject of data set [22] is Echinochloa crus-galli. The data set can be described thus: Herbicidal activity against Echinochloa crus-galli (barnyard grass) at 5000 g/ha after 2 weeks. It counts as functional.
Data set [23] deals with Triticum aestivum. The data set can be described thus: Herbicidal activity against Triticum aestivum (wheat) at 5000 g/ha after 2 weeks. The data set is classed as ADME, organism-based. To be noted: in vivo, 336 h.
Data set [24] has as its system Galium spurium. The data set can be described thus: Herbicidal activity against Galium spurium var. echinospermon (Wally.) Hayek at 5000 g/ha after 2 weeks. The data set is classed as functional.

For the molecule `CCCNC(=O)c1nc(C)c(C)nc1C(=O)Nc1cc(F)ccc1C`, the Activity in data set [1] is recorded as less than 10%; in data set [2], 95%; in [3], 95%; in data set [4] it was less than 10%; in data set [5], less than 10%; in data set [6], 30%. Moreover, the Activity is 30% in data set [7]; 95% in data set [8]; less than 10% in data set [9]; 95% in [10]; less than 10% in data set [11]; 10% in data set [12]. For the same molecule, the Activity in [13] was 95%; in data set [14] it was 95%; in data set [15], less than 10%; in [16], less than 10%; in data set [17] it was less than 10%; in data set [18], less than 10%. The Activity in data set [19] is 10%; in data set [20] it was 30%; in [21], less than 10%; in data set [22], 30%; in data set [23], 30%; in data set [24], 95%.

With `Cc1ccc(F)cc1NC(=O)c1nc(C)c(C)nc1C(=O)NC(C)C`, the Activity is on record as less than 10% in [1]; 70% in data set [2]; 70% in [3]; less than 10% in [4]; less than 10% in data set [5]; 10% in data set [6]. In addition, the Activity in data set [7] is reported as 50%; in [8], 95%; in data set [9], 30%; in [10], 70%; in data set [11], less than 10%; in data set [12], 30%. Further, the Activity in data set [13] is 50%; in [14] it was 95%; in [15], less than 10%; in [16], less than 10%; in data set [17] it was less than 10%; in [18] it was less than 10%. For the same molecule, the Activity was determined as 30% in data set [19]; 70% in [20]; 10% in data set [21]; 50% in [22]; 30% in [23]; 70% in [24].

On to `CCCCNC(=O)c1nc(C)c(C)nc1C(=O)Nc1cc(F)ccc1C`, for which the Activity is on record as less than 10% in data set [1]; less than 10% in data set [2]; 95% in [3]; less than 10% in data set [4]; less than 10% in data set [5]; less than 10% in data set [6]. For the same molecule, the Activity is given as less than 10% in [7]; 95% in data set [8]; less than 10% in data set [9]; 50% in data set [10]; less than 10% in [11]; 10% in data set [12]. Besides, the Activity was 95% in data set [13]; 95% in data set [14]; less than 10% in data set [15]; less than 10% in data set [16]; less than 10% in data set [17]; less than 10% in data set [18]. The Activity in [19] was less than 10%; in [20], less than 10%; in [21] it was 30%; in [22] it was 70%; in [23], 30%; in data set [24], 30%.
